Read-outs that look alike come from different tables or passages of the source.
Key:
UGT1A9 = molecular target: T1, UGT1A9 (Homo sapiens, UniProt O60656); test: Inhibition of expressed UGT1A9 (probe propofol); format: in vitro ADME
T1 sequence (O60656 26-530): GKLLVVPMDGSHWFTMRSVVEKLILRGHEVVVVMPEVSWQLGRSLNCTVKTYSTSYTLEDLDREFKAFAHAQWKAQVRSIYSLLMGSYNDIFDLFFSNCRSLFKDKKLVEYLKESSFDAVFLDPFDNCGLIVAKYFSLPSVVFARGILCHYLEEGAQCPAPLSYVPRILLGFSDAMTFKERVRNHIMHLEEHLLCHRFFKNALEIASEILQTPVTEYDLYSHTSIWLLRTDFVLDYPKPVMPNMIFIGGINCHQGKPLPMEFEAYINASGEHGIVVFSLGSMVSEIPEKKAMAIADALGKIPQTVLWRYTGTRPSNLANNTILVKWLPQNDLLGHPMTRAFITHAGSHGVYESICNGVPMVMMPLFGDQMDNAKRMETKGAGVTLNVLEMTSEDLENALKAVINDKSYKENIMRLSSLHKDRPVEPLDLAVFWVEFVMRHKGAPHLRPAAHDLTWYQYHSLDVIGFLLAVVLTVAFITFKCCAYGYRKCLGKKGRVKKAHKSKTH
Description: (§1) After centrifugation (13,800g, 10 min), the supernatant (8 μL) was obtained for determination by UHPLC system.
(§2) Similarly, β-estradiol (60 μM), propofol (40 μM) and 4-MU (350 μM) were typically used as the substrates for UGT1A1, 1A9 and 2B7, respectively. After optimization of incubation conditions (Additional file 1: Fig. S2), the protein concentrations for UGT1A1, 1A9, and 2B7 were 0.125, 0.05, and 0.05 mg/mL, respectively.

CYP2C19 = CYP2C19 (Homo sapiens, UniProt P33261); test: Inhibition of recombinant CYP2C19 (probe mephenytoin); format: in vitro ADME
CYP2C19, sequence (P33261 whole entry): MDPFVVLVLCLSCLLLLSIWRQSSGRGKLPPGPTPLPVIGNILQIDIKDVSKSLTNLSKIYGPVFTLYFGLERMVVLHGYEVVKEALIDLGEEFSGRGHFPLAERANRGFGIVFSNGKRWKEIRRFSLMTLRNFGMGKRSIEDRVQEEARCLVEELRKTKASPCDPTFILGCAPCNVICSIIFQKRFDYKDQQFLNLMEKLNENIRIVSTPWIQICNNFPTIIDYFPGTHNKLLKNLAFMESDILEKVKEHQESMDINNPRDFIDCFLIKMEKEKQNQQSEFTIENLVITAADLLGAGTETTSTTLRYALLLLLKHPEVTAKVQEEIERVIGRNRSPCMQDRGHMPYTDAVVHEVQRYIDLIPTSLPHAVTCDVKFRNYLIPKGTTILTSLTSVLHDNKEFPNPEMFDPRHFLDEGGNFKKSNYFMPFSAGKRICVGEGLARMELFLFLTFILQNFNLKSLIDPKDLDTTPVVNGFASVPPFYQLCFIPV
Description: (§3) In this study, phenacetin (100 μM), coumarin (100 μM), bupropion (100 μM), paclitaxel (60 μM), tolbutamide (200 μM), mephenytoin (100 μM), chlorzoxazone (200 μM) and nifedipine (40 μM) have been used as the probe substrates for CYP1A2, 2A6, 2B6, 2C8, 2C9, 2C19, 2E1 and 3A4, respectively.

UGT1A1 = molecular target: T2, UGT1A1 (Homo sapiens, UniProt P22309); test: Inhibition of expressed UGT1A1 (probe β-estradiol); format: in vitro ADME
T2 sequence (P22309 26-533): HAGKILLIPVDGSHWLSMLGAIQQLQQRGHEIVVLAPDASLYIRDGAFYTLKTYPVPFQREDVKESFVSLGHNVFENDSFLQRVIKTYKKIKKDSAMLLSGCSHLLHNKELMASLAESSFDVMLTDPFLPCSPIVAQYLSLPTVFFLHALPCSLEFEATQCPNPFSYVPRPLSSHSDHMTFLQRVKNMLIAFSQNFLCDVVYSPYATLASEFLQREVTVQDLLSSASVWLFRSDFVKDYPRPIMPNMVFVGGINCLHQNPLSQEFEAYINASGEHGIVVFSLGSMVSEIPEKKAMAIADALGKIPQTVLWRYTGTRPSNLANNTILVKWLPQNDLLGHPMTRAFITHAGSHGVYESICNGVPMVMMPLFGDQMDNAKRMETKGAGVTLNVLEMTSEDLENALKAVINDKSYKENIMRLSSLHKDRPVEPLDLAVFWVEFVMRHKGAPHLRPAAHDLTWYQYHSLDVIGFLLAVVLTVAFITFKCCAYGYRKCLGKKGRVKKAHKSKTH
Description: as §1, §2

CYP2B6 = molecular target: T3, CYP2B6 (Homo sapiens, UniProt P20813); test: Inhibition of recombinant CYP2B6 (probe bupropion); format: in vitro ADME
T3 sequence (P20813 1-491): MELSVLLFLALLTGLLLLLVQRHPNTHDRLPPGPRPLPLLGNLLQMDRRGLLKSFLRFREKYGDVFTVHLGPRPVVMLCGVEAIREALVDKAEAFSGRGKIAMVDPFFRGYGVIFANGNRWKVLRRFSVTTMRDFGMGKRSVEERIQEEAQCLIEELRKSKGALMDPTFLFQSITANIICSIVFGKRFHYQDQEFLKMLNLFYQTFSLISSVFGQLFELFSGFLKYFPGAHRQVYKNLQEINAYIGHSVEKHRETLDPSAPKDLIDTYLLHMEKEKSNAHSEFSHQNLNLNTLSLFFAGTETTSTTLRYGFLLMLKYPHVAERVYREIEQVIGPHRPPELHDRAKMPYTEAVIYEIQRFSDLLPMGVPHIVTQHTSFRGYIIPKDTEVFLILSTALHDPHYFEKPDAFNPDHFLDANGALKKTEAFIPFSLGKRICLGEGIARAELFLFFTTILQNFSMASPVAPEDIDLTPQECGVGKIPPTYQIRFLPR
Description: as §3

[1] = Protein binding assay (equilibrium dialysis); format: in vitro ADME, rat
How it was run: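 Rat plasma binding was measured by equilibrium dialysis (12–14 kDa cutoff membrane), equilibrated 24 h at 37 °C and 55 rpm. Alkaloids were tested at 2 μmol/L and saponins at 4 μmol/L. Unbound fraction = dialysate concentration/post-dialysis plasma concentration × 100%.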

CYP3A4 = CYP3A4 (Homo sapiens, UniProt P08684); test: Inhibition of recombinant CYP3A4 (probe nifedipine); format: in vitro ADME
CYP3A4, sequence (P08684 whole entry): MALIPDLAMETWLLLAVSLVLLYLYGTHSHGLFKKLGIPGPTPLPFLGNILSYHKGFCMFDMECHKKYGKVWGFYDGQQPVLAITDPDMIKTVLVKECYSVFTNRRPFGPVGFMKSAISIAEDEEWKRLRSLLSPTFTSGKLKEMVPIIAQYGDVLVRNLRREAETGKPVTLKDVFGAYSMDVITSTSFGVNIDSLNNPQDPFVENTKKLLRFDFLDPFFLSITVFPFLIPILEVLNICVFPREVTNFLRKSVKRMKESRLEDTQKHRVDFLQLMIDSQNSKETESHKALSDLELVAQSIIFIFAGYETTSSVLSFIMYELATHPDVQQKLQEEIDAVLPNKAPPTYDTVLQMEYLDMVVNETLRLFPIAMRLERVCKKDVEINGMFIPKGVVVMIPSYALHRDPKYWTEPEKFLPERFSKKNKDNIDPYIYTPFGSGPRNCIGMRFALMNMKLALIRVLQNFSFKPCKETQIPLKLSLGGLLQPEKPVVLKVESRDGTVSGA
Description: as §3

P-gp = test system: P-gp; parameters: method as in PMID 24380838; conditions: cited from earlier work
[2] = recombinant isozyme, mean ± SD of triplicate, unit not given (IC50 classes in μM), read-out: IC50 towards UGT1A9
[3] = recombinant isozyme, mean ± SD of triplicate, unit not given (IC50 classes in μM), read-out: IC50 towards CYP2C19
[4] = recombinant isozyme, mean ± SD of triplicate, unit not given (IC50 classes in μM), read-out: IC50 towards UGT1A1
[5] = recombinant isozyme, mean ± SD of triplicate, unit not given (IC50 classes in μM), read-out: IC50 towards CYP2B6
[6] = rat plasma, equilibrium dialysis 24 h, 37 °C, 2 μmol/L alkaloids, 4 μmol/L saponins, read-out: fu-plasma (unbound fraction)
[7] = recombinant isozyme, mean ± SD of triplicate, unit not given (IC50 classes in μM), read-out: IC50 towards CYP3A4

Row | Compound | IC50 (UGT1A9; [2]) | IC50 (CYP2C19; [3]) | IC50 (UGT1A1; [4]) | IC50 (CYP2B6; [5]) | fraction unbound at 24 h [1, 6] | IC50 (CYP3A4; [7]) | also measured
1 | CC(C)=CCC[C@](C)(O[C@@H]1O[C@H](CO)[C@@H](O)[C@H](O)[C@H]1O)[C@H]1CC[C@]2(C)[C@@H]1[C@H](O)C[C@@H]1[C@@]3(C)CC[C@H](O[C@@H]4O[C@H](CO)[C@@H](O)[C@H](O)[C@H]4O[C@@H]4O[C@H](CO)[C@@H](O)[C@H](O)[C@H]4O)C(C)(C)[C@@H]3CC[C@]12C [Compound D2, Ginsenoside Rd] | > 100 µM | > 100 µM | > 100 µM | 20.2 ± 12.4 µM | 0.0075 ± 0.0008 | 41 ± 25.8 µM | inhibition type (smallest AIC and SC) (CYP2B6; CYP2B6): Noncompetitive inhibition; Ki (CYP2B6; CYP2B6, competitive model): 10.2 ± 2.1 µM; Ki (CYP2B6; CYP2B6, mixed-type model): 36.3 ± 10.2 µM; α (CYP2B6; CYP2B6, mixed-type model): 1.0 ± 0.4; Ki (CYP2B6; CYP2B6, noncompetitive model): 37.2 ± 2.3 µM; Cmax/Ki ([I]/Ki) (CYP2B6; CYP2B6, selected model, rat plasma Cmax): 0.02; IC50 (CYP2B6; bupropion 100 μM, read-out: IC50 against CYP2B6): 20.2 µM; inhibition type (smallest AIC and SC) (CYP3A4; CYP3A4): Noncompetitive inhibition; Ki (CYP3A4; CYP3A4, competitive model): 8.7 ± 2.3 µM; Ki (CYP3A4; CYP3A4, mixed-type model): 44.2 ± 16.2 µM; α (CYP3A4; CYP3A4, mixed-type model): 0.6 ± 0.3; Ki (CYP3A4; CYP3A4, noncompetitive model): 32.8 ± 2.2 µM; Cmax/Ki ([I]/Ki) (CYP3A4; CYP3A4, selected model, rat plasma Cmax): 0.02; IC50 (CYP3A4; nifedipine 40 μM, read-out: IC50 towards CYP3A4): 41 µM
2 | CC(C)=CCC[C@](C)(O)[C@H]1CC[C@]2(C)[C@@H]1[C@H](O)C[C@@H]1[C@@]3(C)CC[C@H](O)C(C)(C)[C@@H]3[C@@H](O[C@@H]3O[C@H](CO)[C@@H](O)[C@H](O)[C@H]3O[C@@H]3O[C@H](CO)[C@@H](O)[C@H](O)[C@H]3O)C[C@]12C [Compound C7, Ginsenoside Rf] | > 100 µM | > 100 µM | > 100 µM | > 100 µM | – | > 100 µM | fraction unbound at 24 h ([1]; rat, plasma): 0.602 ± 0.0701
3 | CC(C)(O)[C@@H]1CC[C@](C)([C@H]2[C@@H](O)C[C@@]3(C)[C@@H]4C[C@H](O[C@@H]5O[C@H](CO)[C@@H](O)[C@H](O)[C@H]5O)[C@H]5C(C)(C)[C@@H](O[C@@H]6OC[C@@H](O)[C@H](O)[C@H]6O)CC[C@@]56C[C@@]46CC[C@]23C)O1 [Compound B2, Astragaloside IV] | > 100 µM | > 100 µM | > 100 µM | > 100 µM | – | > 100 µM | inhibition activity (P-gp; MDR1-MDCKII cells, 100 μM): 8.22%; bound in rat plasma ([1]; rat plasma, equilibrium dialysis): ~90%; fu-plasma (unbound fraction) ([1]; rat plasma, equilibrium dialysis 24 h, 37 °C, 2 μmol/L alkaloids, 4 μmol/L saponins): 12.35 ± 1.02%
4 | O=C1CCC[C@@H]2[C@H]3CCCN4CCC[C@@H](CN12)[C@@H]34 [Compound A1, Matrine] | – | – | – | – | 0.927 ± 0.0681 | – | IC50 (UGT1A9): > 100 µM; IC50 (CYP2C19): > 100 µM; inhibition of P-gp (P-gp; in vitro and in vivo): did not demonstrate the inhibition of P-gp; IC50 (UGT1A1): > 100 µM; IC50 (CYP2B6): > 100 µM; IC50 (CYP3A4): > 100 µM
5 | CC(C)=CCC[C@](C)(O[C@@H]1O[C@H](CO)[C@@H](O)[C@H](O)[C@H]1O)[C@H]1CC[C@]2(C)[C@@H]1[C@H](O)C[C@@H]1[C@@]3(C)CC[C@H](O)C(C)(C)[C@@H]3[C@@H](O[C@@H]3O[C@H](CO)[C@@H](O)[C@H](O)[C@H]3O)C[C@]12C [Compound C6, Ginsenoside Rg1] | > 100 µM | > 100 µM | 92.2 ± 40 µM | > 100 µM | 0.863 ± 0.0732 | > 100 µM | inhibition type (smallest AIC and SC) (UGT1A1; UGT1A1): competitive inhibition; Ki (UGT1A1; UGT1A1, competitive model): 141 ± 10.5 µM; Ki (UGT1A1; UGT1A1, mixed-type model): 147 ± 29.9 µM; α (UGT1A1; UGT1A1, mixed-type model): 8.3 ± 37.2; Ki (UGT1A1; UGT1A1, noncompetitive model): 187 ± 12.7 µM; Cmax/Ki ([I]/Ki) (UGT1A1; UGT1A1, selected model, rat plasma Cmax): 0.01; IC50 (UGT1A1; β-estradiol 60 μM, read-out: IC50 against UGT1A1): 92.2 µM
6 | CC(C)=CCC[C@](C)(O[C@@H]1O[C@H](CO[C@@H]2O[C@H](CO)[C@@H](O)[C@H](O)[C@H]2O)[C@@H](O)[C@H](O)[C@H]1O)[C@H]1CC[C@]2(C)[C@@H]1[C@H](O)C[C@@H]1[C@@]3(C)CC[C@H](O[C@@H]4O[C@H](CO)[C@@H](O)[C@H](O)[C@H]4O[C@@H]4O[C@H](CO)[C@@H](O)[C@H](O)[C@H]4O)C(C)(C)[C@@H]3CC[C@]12C [Compound D5, Ginsenoside Rb1] | > 100 µM | > 100 µM | > 100 µM | > 100 µM | 0.0096 ± 0.0009 | > 100 µM | –
7 | CC(C)=CCC[C@](C)(O[C@@H]1O[C@H](CO[C@@H]2O[C@@H](CO)[C@H](O)[C@H]2O)[C@@H](O)[C@H](O)[C@H]1O)[C@H]1CC[C@]2(C)[C@@H]1[C@H](O)C[C@@H]1[C@@]3(C)CC[C@H](O[C@@H]4O[C@H](CO)[C@@H](O)[C@H](O)[C@H]4O[C@@H]4O[C@H](CO)[C@@H](O)[C@H](O)[C@H]4O)C(C)(C)[C@@H]3CC[C@]12C [Compound D3, Ginsenoside Rc] | 29 ± 12.7 µM | > 100 µM | > 100 µM | > 100 µM | 0.0112 ± 0.0012 | > 100 µM | inhibition type (smallest AIC and SC) (UGT1A9; UGT1A9): Noncompetitive inhibition; Ki (UGT1A9; UGT1A9, competitive model): 8.9 ± 1.5 µM; Ki (UGT1A9; UGT1A9, mixed-type model): 27 ± 7.5 µM; α (UGT1A9; UGT1A9, mixed-type model): 0.7 ± 0.3; Ki (UGT1A9; UGT1A9, noncompetitive model): 22.3 ± 1.4 µM; Cmax/Ki ([I]/Ki) (UGT1A9; UGT1A9, selected model, rat plasma Cmax): 0.04; IC50 (UGT1A9; propofol 40 μM, read-out: IC50 against UGT1A9): 29 µM
8 | CC(C)=CCC[C@](C)(O[C@@H]1O[C@H](CO)[C@@H](O)[C@H](O)[C@H]1O)[C@H]1CC[C@]2(C)[C@@H]1[C@H](O)C[C@@H]1[C@@]3(C)CC[C@H](O)C(C)(C)[C@@H]3[C@@H](O[C@@H]3O[C@H](CO)[C@@H](O)[C@H](O)[C@H]3O[C@@H]3O[C@@H](C)[C@H](O)[C@@H](O)[C@H]3O)C[C@]12C [Compound C9, Ginsenoside Re] | > 100 µM | > 100 µM | > 100 µM | > 100 µM | 0.874 ± 0.0659 | > 100 µM | –
